Measurements: ChEMBL document CHEMBL4431321, “Profiling of Flavonol Derivatives for the Development of Antitrypanosomatidic Drugs” (J Med Chem, 2016)
Blank lines part the entries; values can stand above or below the molecule they belong to. Calls of active or inactive are those of the source. The calls are words filed in the database; no cut-off is given here.

How the values were obtained:
[1] = test system: Trypanosoma brucei brucei; experiment: Antitrypanosomal activity against Trypanosoma brucei brucei Lister 427 bloodstream forms after 72 hrs by resazurin-based assay; assay type: functional, organism-based; details: Lister 427, 72 h
[2] = (§1) Inhibition of Trypanosoma brucei PTR1 using H2B as substrate incubated for 10 mins followed by addition of NADPH measured for 10 to 50 mins
[3] = test system: Leishmania mexicana; experiment: Inhibition of Leishmania mexicana PTR1 at 50 uM using H2B as substrate incubated for 10 mins followed by addition of NADPH measured for 10 to 50 mins
[4] = test system: Trypanosoma brucei; experiment: Inhibition of Trypanosoma brucei PTR1 at 50 uM using H2B as substrate incubated for 10 mins followed by addition of NADPH measured for 10 to 50 mins
[5] = Cytotoxicity against human THP1 cells after 72 hrs by MTT assay; assay type: cell-based; details: THP-1 cells; for MNTC at 72 h: read-out: NOAEL
[6] = biological target: T1, Cytochrome P450 1A2 (Homo sapiens, UniProt P05177); experiment: Inhibition of human microsomal CYP1A2 expressed in baculovirus infected BTI-TN-5B1-4 cells at 10 uM incubated for 30 mins by luciferase assay; assay type: ADME; details: bti-tn-5b1-4, 0.5 h, 10 µM
T1 sequence (P05177 whole entry): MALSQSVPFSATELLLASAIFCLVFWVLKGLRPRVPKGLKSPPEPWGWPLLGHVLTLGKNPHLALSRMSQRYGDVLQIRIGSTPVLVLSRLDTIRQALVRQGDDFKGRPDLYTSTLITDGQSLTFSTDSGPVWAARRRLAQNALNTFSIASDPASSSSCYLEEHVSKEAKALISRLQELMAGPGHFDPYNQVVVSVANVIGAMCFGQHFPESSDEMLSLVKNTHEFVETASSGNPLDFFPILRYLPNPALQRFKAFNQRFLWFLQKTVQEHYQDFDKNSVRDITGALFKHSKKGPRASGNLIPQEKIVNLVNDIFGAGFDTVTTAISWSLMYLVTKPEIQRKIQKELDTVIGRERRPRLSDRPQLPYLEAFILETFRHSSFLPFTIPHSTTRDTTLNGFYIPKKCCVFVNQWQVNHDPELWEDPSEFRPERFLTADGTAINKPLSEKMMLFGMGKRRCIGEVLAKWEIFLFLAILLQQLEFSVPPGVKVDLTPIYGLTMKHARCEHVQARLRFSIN

[7] = test system: Trypanosoma brucei brucei; experiment: Antitrypanosomal activity against Trypanosoma brucei brucei Lister 427 bloodstream forms at 10 uM after 72 hrs by resazurin-based assay; assay type: functional, organism-based
[8] = in vitro; details: human, THP-1 cells
Description: Selectivity index, ratio of CC50 for human THP1 cells to EC50 for Trypanosoma brucei brucei Lister 427 bloodstream forms

[9] = test system: 786-0; experiment: Mitochondrial toxicity in human 786-O cells incubated for 6 hrs by mitotracker red staining based-uptake method; assay type: cell-based; details: 786-0, 6 h
[10] = test system: A549; experiment: Cytotoxicity against human A549 cells at 100 uM after 48 hrs by cell titer glo assay; assay type: cell-based; details: a549, 48 h
[11] = test system: WI-38; experiment: Cytotoxicity against human WI38 cells at 100 uM after 48 hrs by cell titer glo assay; assay type: cell-based; details: wi-38, 48 h
[12] = test system: Trypanosoma brucei brucei; experiment: Antitrypanosomal activity against Trypanosoma brucei brucei Lister 427 bloodstream forms assessed as synergy coefficient at 1.25 to 5 uM after 72 hrs in presence of MTX by resazurin-based assay; assay type: functional
[13] = test system: Trypanosoma brucei; experiment: Inhibition of Trypanosoma brucei DHFR at 50 uM using folic aid as substrate by spectrophotometric analysis
[14] = biological target: Thymidylate synthase (Homo sapiens) (UniProt P04818); experiment: Inhibition of human thymidylate synthase at 50 uM using folic aid as substrate by spectrophotometric analysis
Chain of Thymidylate synthase (Homo sapiens) (P04818 2-313 limits assumed): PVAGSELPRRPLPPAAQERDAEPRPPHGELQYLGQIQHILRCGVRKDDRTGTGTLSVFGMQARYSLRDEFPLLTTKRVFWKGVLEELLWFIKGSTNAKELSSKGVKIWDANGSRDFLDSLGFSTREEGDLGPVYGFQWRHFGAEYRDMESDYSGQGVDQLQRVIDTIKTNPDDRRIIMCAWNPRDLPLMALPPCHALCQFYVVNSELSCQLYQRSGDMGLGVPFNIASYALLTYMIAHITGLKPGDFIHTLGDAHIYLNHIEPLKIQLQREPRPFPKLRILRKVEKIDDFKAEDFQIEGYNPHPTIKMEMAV

[15] = test system: Leishmania mexicana; experiment: Inhibition of Leishmania mexicana DHFR at 50 uM using folic aid as substrate by spectrophotometric analysis
[16] = biological target: T2, Dihydrofolate reductase (Homo sapiens) (UniProt P00374); experiment: Inhibition of human DHFR at 50 uM using folic aid as substrate by spectrophotometric analysis
T2 sequence (whole entry): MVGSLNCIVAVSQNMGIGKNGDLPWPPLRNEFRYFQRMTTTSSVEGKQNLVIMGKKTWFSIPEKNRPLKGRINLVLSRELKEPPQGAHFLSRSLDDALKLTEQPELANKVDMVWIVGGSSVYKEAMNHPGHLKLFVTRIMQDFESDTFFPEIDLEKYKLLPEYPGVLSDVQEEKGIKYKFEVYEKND

[17] = test system: Trypanosoma brucei; experiment: as §1

IC50 [1]: < 30 µM
SMILES: O=C(/C=C/c1ccc(O)c(O)c1)O[C@@H]1C[C@](O)(C(=O)O)C[C@@H](O)[C@H]1O [CHLOROGENIC ACID]

IC50 [1]: < 30 µM
SMILES: COc1cc(O)c2c(=O)cc(-c3ccccc3)oc2c1 [TECHTOCHRYSIN]

IC50 [1]: < 30 µM
SMILES: COc1cc(OC)c2c(=O)cc(-c3ccccc3)oc2c1 [CHRYSIN DIMETHYL ETHER]

IC50 [1]: < 30 µM
SMILES: O=C1c2c(O)cccc2C(C2OC(CO)C(O)C(O)C2O)c2cc(CO)cc(O)c21 (configuration not stated)

SMILES: COc1cc(-c2oc3cc(O)cc(O)c3c(=O)c2O)ccc1O [ISORHAMNETIN]
IC50 [2]: 13.9 µM
IC50 [1]: 11.2 µM

inhibition [3]: inactive
inhibition [4]: inactive
inhibition (INH) [6]: Not Active
SMILES: COc1cccc(-c2oc3ccccc3c(=O)c2O)c1
MNTC at 72 h [5]: 10 µM
Activity [7]: Active
selectivity ratio [8]: 4
Activity [9]: Non-Toxic
Activity [10]: Non-Toxic
Activity [11]: Non-Toxic

IC50 [1]: 27 µM
SMILES: O=c1c(O)c(-c2ccccc2O)oc2cc(O)cc(O)c12 [DATISCETIN]
IC50 [2]: 76.9 µM

IC50 [1]: < 30 µM
SMILES: COc1ccc([C@H]2CC(=O)c3c(O)cc(O[C@@H]4O[C@H](CO[C@@H]5O[C@@H](C)[C@H](O)[C@@H](O)[C@H]5O)[C@@H](O)[C@H](O)[C@H]4O)cc3O2)cc1O

IC50 [1]: < 30 µM
SMILES: O=C(O)/C=C/c1ccc(O)c(O)c1 [CAFFEIC ACID]

inhibition (INH) [6]: Not Active
SMILES: COc1ccc2oc(-c3ccc(OC)c(OC)c3)c(O)c(=O)c2c1
CI [12]: >1
MNTC at 72 h [5]: 10 µM
Activity [7]: Active
selectivity ratio [8]: 5
Activity [9]: Non-Toxic
Activity [10]: Non-Toxic
Activity [11]: Non-Toxic

IC50 [1]: < 30 µM
SMILES: O=C(O)/C=C/c1ccccc1O [O-COUMARIC ACID]

IC50 [1]: 9.1 µM
SMILES: O=c1c(O)c(-c2ccccc2)oc2ccccc12 [FLAVONOL]
IC50 [2]: 12.8 µM

IC50 [1]: < 30 µM
SMILES: COc1cc(-c2cc(=O)c3c(O)cc(O)cc3o2)ccc1O [CHRYSOERIOL]

inhibition [13]: < 25%
inhibition [14]: inactive
inhibition [15]: < 25%
inhibition [4]: 3%
inhibition [16]: < 30%
inhibition (INH) [6]: Not Active
EC50 [1]: 2.32 µM
SMILES: O=c1c(O)c(-c2ccc(O)cc2)oc2ccc(O)cc12
CI [12]: >1.5
MNTC at 72 h [5]: 20 µM
Activity [7]: Active
selectivity ratio [8]: 7
Activity [9]: Non-Toxic
Activity [10]: Non-Toxic
Activity [11]: Non-Toxic

inhibition [13]: 42 to 43%
inhibition [3]: 35%
inhibition [14]: inactive
inhibition [15]: 42 to 43%
inhibition [4]: 35%
inhibition [16]: < 30%
inhibition (INH) [6]: Not Active
EC50 [1]: 5.18 µM
SMILES: O=c1c(O)c(-c2cccc(O)c2)oc2ccccc12
MNTC at 72 h [5]: 20 µM
Activity [7]: Active
selectivity ratio [8]: 4
Activity [9]: Non-Toxic
Activity [10]: Non-Toxic
Activity [11]: Non-Toxic

IC50 [1]: < 30 µM
SMILES: Oc1cc(O)c2c(c1)O[C@H](c1ccc(O)c(O)c1)[C@@H](O)C2 [CIANIDANOL]

SMILES: CC1(C(=O)O)CCC2(C)CCC3(C)C(=CC(=O)C4C5(C)CCC(OC6OC(C(=O)O)C(O)C(O)C6OC6OC(C(=O)O)C(O)C(O)C6O)C(C)(C)C5CCC43C)C2C1 (configuration not stated)
IC50 [1]: < 30 µM

SMILES: N=C(N)c1ccc(OCCCCCOc2ccc(C(=N)N)cc2)cc1 [PENTAMIDINE]
MNTC at 72 h [5]: 10 µM
selectivity ratio [8]: 6440

IC50 [1]: < 30 µM
SMILES: COc1ccc([C@H]2CC(=O)c3c(O)cc(O[C@@H]4O[C@H](CO)[C@@H](O)[C@H](O)[C@H]4O[C@@H]4O[C@@H](C)[C@H](O)[C@@H](O)[C@H]4O)cc3O2)cc1O

IC50 [1]: < 30 µM
SMILES: COc1cccc(/C=C/C(=O)O)c1

IC50 [1]: < 30 µM
SMILES: O=C(O)/C=C/c1cccc(O)c1

IC50 [1]: 9 µM
SMILES: O=c1c(O)c(-c2ccc(O)cc2)oc2cc(O)cc(O)c12 [KAEMPFEROL]
IC50 [2]: 28 µM

IC50 [1]: < 30 µM
SMILES: O=c1oc2c(O)c(O)cc3c(=O)oc4c(O)c(O)cc1c4c23

inhibition [17]: inactive
IC50 [1]: < 30 µM
SMILES: C[C@@H]1O[C@@H](OC[C@H]2O[C@@H](Oc3c(-c4ccc(O)c(O)c4)oc4cc(O)cc(O)c4c3=O)[C@H](O)[C@@H](O)[C@@H]2O)[C@H](O)[C@H](O)[C@H]1O

inhibition [13]: < 25%
inhibition [14]: inactive
inhibition [15]: < 25%
inhibition [16]: < 30%
inhibition (INH) [6]: Not Active
EC50 [1]: 1.36 µM
SMILES: O=c1c(O)c(-c2ccc(O)c(O)c2)oc2ccc(O)cc12
MNTC at 72 h [5]: 10 µM
Activity [7]: Active
selectivity ratio [8]: 6
Activity [9]: Non-Toxic
Activity [10]: Non-Toxic
Activity [11]: Non-Toxic

IC50 [1]: < 30 µM
SMILES: COc1ccc(/C=C/C(=O)O)cc1O [ISOFERULIC ACID]

IC50 [1]: < 30 µM
SMILES: O=c1cc(-c2ccccc2)oc2cccc(O)c12 [5-HYDROXYFLAVONE]

SMILES: O=C(O)c1cc(O)c(O)c(O)c1 [GALLIC ACID]
IC50 [1]: < 30 µM

IC50 [1]: < 30 µM
SMILES: COc1ccc([C@@H]2CC(=O)c3c(O)cc(O)cc3O2)cc1O [HESPERETIN]

IC50 [1]: < 30 µM
SMILES: O=c1cc(-c2ccc(O)c(O)c2)oc2cc(O[C@@H]3O[C@@H](CO)[C@H](O)[C@@H](O)[C@@H]3O)cc(O)c12

IC50 [1]: < 30 µM
SMILES: O=c1cc(-c2ccccc2)oc2cc(O)cc(O)c12 [CHRYSIN]

SMILES: O=C1CC(c2ccc(O)cc2)Oc2cc(O)cc(O)c21 (configuration not stated)
IC50 [1]: < 30 µM

inhibition [3]: inactive
inhibition [4]: 4%
inhibition (INH) [6]: Not Active
SMILES: COc1cccc(-c2oc3ccc(OC)cc3c(=O)c2O)c1
CI [12]: >1
MNTC at 72 h [5]: 10 µM
Activity [7]: Active
selectivity ratio [8]: 7
Activity [9]: Non-Toxic
Activity [10]: Non-Toxic
Activity [11]: Non-Toxic

IC50 [1]: < 30 µM
SMILES: COc1cc(/C=C/C(=O)O)ccc1O [FERULATE]

SMILES: Cc1cc(O)c2c(c1)C(=O)c1cc(O)cc(O)c1C2=O [EMODIN]
IC50 [1]: < 30 µM

IC50 [1]: < 30 µM
SMILES: O=c1cc(-c2ccccc2)oc2ccccc12 [FLAVONE]

inhibition (INH) [6]: Not Active
SMILES: COc1ccc2c(=O)c(O)c(-c3ccc(OC)c(OC)c3)oc2c1
MNTC at 72 h [5]: 25 µM
Activity [7]: Active
selectivity ratio [8]: 8
Activity [9]: Non-Toxic
Activity [10]: Non-Toxic
Activity [11]: Non-Toxic

inhibition [13]: < 25%
inhibition [14]: inactive
inhibition [15]: < 25%
inhibition [4]: 47%
inhibition [16]: < 30%
inhibition (INH) [6]: Not Active
EC50 [1]: 12.3 µM
SMILES: O=c1c(O)c(-c2cccc(O)c2)oc2cc(O)ccc12
CI [12]: >1
CC50 at 72 h [5]: 80 µM
Activity [7]: Active
selectivity ratio [8]: 6
Activity [9]: Non-Toxic
Activity [10]: Non-Toxic
Activity [11]: Non-Toxic

SMILES: O=c1cc(-c2ccc(O)c(O)c2)oc2cc(O)cc(O)c12 [LUTEOLIN]
IC50 [1]: < 30 µM

IC50 [1]: < 30 µM
SMILES: O=C(O)/C=C/c1ccc(O)cc1 [COUMARIC ACID]

inhibition (INH) [6]: Not Active
SMILES: COc1cccc(-c2oc3cc(OC)ccc3c(=O)c2O)c1
MNTC at 72 h [5]: 10 µM
Activity [7]: Active
selectivity ratio [8]: 8
Activity [9]: Non-Toxic
Activity [10]: Non-Toxic
Activity [11]: Non-Toxic

SMILES: COc1ccc(-c2oc3cc(OC)ccc3c(=O)c2O)cc1
MNTC at 72 h [5]: 10 µM
inhibition (INH) [6]: Not Active
Activity [7]: Active
selectivity ratio [8]: 9
Activity [9]: Non-Toxic
Activity [10]: Non-Toxic
Activity [11]: Non-Toxic

IC50 [1]: < 30 µM
SMILES: Oc1cc(O)c2c(c1)O[C@H](c1ccc(O)c(O)c1)[C@H](O)C2 [(-)-EPICATECHIN]

IC50 [1]: < 30 µM
SMILES: C[C@H]1O[C@@H](O[C@@H]2[C@H](Oc3cc(O)c4c(c3)OC(c3ccc(O)cc3)CC4=O)O[C@@H](CO)[C@H](O)[C@H]2O)[C@@H](O)[C@@H](O)[C@@H]1O (some centres not stated)
